Molecular target: T1, BMX (Homo sapiens, UniProt P51813)
T1 construct: purchased Thermo Fisher Scientific (Life Technologies) SelectScreen
Experiment: SelectScreen Z'LYTE
Assay type: biochemical
How it was run: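 Compound tested in SelectScreen activity assays, Z'LYTE for CSF1R, CDK1/cyclin B and MAP2K6 and Adapta for CAMK1. ATP for CAMK1 was listed as 10, and Km app was used for CSF1R. Results are expressed in percent.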

T1 sequence (P51813 whole entry): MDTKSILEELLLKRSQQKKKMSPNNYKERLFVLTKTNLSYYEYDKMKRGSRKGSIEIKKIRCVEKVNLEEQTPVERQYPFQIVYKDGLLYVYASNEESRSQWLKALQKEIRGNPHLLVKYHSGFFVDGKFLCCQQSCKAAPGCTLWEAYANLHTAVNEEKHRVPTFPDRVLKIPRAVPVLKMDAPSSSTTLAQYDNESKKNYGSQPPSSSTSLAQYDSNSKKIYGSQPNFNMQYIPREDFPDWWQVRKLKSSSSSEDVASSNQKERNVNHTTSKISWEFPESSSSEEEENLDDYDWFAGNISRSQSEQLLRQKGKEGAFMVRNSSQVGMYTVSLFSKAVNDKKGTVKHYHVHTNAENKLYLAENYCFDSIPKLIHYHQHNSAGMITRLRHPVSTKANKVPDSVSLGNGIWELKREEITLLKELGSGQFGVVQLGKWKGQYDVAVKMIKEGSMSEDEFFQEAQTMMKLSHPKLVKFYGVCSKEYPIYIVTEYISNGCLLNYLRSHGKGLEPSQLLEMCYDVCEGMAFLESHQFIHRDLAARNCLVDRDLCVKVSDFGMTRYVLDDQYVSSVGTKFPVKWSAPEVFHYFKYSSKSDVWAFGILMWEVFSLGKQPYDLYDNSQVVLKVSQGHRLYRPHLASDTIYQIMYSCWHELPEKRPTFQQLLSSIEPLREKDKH

In the case of `CN(C(=O)CN1CCOCC1)c1ccc2sc3c(-c4cccc5c(=O)cc(N6CC7CCC(C6)O7)oc45)cccc3c2c1` [NU5455], the inhibition at 1 µM was 4.4%.

Source: paper PMC6934184, “Selective DNA-PKcs inhibition extends the therapeutic index of localized radiotherapy and chemotherapy” (The Journal of Clinical Investigation, 2019)
